The results in this text go back to article PMC11448502, “Cryo-EM structures of the human P2X1 receptor reveal subtype-specific architecture and antagonism by supramolecular ligand-binding” (Nature Communications, 2024).

Holding throughout (assay): ATP dose response (EC50), TEVC in oocytes
Common to all, as to type: cell-based

Test [1] has as its target T1, hP2X1 R292A (Homo sapiens, UniProt P51575, R292A).
T1 construct: hP2X1 mRNA that was made from linearized full-length wild-type or mutant pcDNA 3.1x; expressed in transfected cells; host or cells: Xenopus laevis oocytes (mRNA injection)
T1 sequence (P51575 1-399 R292A): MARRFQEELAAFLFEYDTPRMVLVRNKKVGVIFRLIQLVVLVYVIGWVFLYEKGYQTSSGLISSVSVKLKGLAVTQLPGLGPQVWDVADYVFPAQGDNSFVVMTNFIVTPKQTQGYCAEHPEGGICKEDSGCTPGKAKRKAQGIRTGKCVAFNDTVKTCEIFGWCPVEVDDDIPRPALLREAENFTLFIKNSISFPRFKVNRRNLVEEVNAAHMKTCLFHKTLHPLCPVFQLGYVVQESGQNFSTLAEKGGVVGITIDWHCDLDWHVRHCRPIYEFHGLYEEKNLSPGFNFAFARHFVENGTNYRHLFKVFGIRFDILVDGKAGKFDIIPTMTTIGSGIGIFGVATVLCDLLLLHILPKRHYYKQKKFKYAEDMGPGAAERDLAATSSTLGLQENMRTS
On the procedure:
(§1) Oocytes were purchased defolliculated from Ecocyte Bioscience in Barth’s Solution (88 mM NaCl, 1 mM KCl, 0.82 mM MgSO4, 0.33 mM Ca(NO3)2, 0.41 mM CaCl2, 2.4 mM NaHCO3, 5 mM Tris-HCl) supplemented with penicillin (100 U/mL) and streptomycin (100 µg/mL). Xenopus laevis oocytes were then injected with 50 nL of 100 ng/μL hP2X1 mRNA that was made from linearized full-length wild-type or mutant pcDNA 3.1x according to the protocol provided in the mMessage mMachine kit (Invitrogen). Injected oocytes were allowed to express for ~20 hours at 18 °C before recording was performed.
(§2) Data acquisition was performed using the Oocyte Clamp OC-725C amplifier and pClamp 8.2 software. Buffers were applied using a gravity fed RSC-200 Rapid Solution Changer that flows at ~5 mL/min. All experiments use Sutter filamented glass 10 cm in length with an inner diameter of 0.69 mm and an outer diameter of 1.2 mm to impale oocytes and clamp the holding voltage at −60 mV. Experiments were recorded in buffer containing 10 mM HEPES (pH 7.4), 140 mM NaCl, 5 mM KCl, 2 mM CaCl2, 2 mM MgCl2, and 10 mM glucose.
(§3) Excitatory responses to a dilution series of ATP between 6.4 nM and 10 mM were examined across the different mutants. Each evoked response was normalized to an initial ATP-induced current evoked by the following concentrations: 500 µM ATP for R292A, 2 mM ATP for K309A, and 100 µM ATP for the remaining mutants and wild-type receptor. The data was fit in Prism 9 using the nonlinear regression named “EC50, x is concentration” to afford EC50 values. This value was then averaged amongst each singular condition and reported as an average plus or minus the standard deviation.

For test [2], the target named is T2, hP2X1 K249A (Homo sapiens, UniProt P51575, K249A).
T2 construct: hP2X1 mRNA that was made from linearized full-length wild-type or mutant pcDNA 3.1x; expressed in transfected cells; host or cells: Xenopus laevis oocytes (mRNA injection)
T2 sequence (P51575 1-399 K249A): T1 sequence (P51575 1-399 R292A) with K249A, A292R
The note with it: for Normalized Current: hP2X1 K249A. The procedure:
as §1, §2, §3

Test [3] has as its target T3, hP2X1 K136A (Homo sapiens, UniProt P51575, K136A).
T3 construct: hP2X1 mRNA that was made from linearized full-length wild-type or mutant pcDNA 3.1x; expressed in transfected cells; host or cells: Xenopus laevis oocytes (mRNA injection)
T3 sequence (P51575 1-399 K136A): T1 sequence (P51575 1-399 R292A) with K136A, A292R
On the procedure: as §1, §2, §3

Test [4] deals with T4, hP2X1 D170A (Homo sapiens, UniProt P51575, D170A).
T4 construct: hP2X1 mRNA that was made from linearized full-length wild-type or mutant pcDNA 3.1x; expressed in transfected cells; host or cells: Xenopus laevis oocytes (mRNA injection)
T4 sequence (P51575 1-399 D170A): T1 sequence (P51575 1-399 R292A) with D170A, A292R
Conditions: for Normalized Current: hP2X1 D170A. On the procedure: as §1, §2, §3

Positions count from the first letter of the chain named. Several values for one entry are separate records, joined by “and”; a condition that tells them apart may be missing. Identical values can stand only once. Entries after “also recorded” stand apart in the source; their conditions may differ.

`Nc1ncnc2c1ncn2[C@@H]1O[C@H](COP(=O)(O)OP(=O)(O)OP(=O)(O)O)[C@@H](O)[C@H]1O` [ATP]: the “EC50 of ATP” value was “impacted” in test [1] (TEVC) and “did not affect” in test [3] (TEVC). Further, the “Normalized Current” value in test [1] ([ATP] 1.000E-04 M) is 0.772 and 0.7521 and 0.7236; in test [1] ([ATP] 1.600E-07 M) it was 0.000000; in test [1] ([ATP] 2.000E-05 M) it was 0.2643 and 0.1768 and 0.1722; in test [1] ([ATP] 2.500E-03 M) it was 1.04 and 1.022 and 0.9381; in test [1] ([ATP] 5.000E-04 M), 0.9697 and 0.8815 and 0.878; in test [2] ([ATP] 1.000E-04 M), 1.03 and 1.005 and 0.9647. Besides, the “Normalized Current” value was 1.005 and 0.9326 and 0.8353 in test [2] ([ATP] 2.000E-05 M); 0.7721 and 0.7584 and 0.7231 in test [2] ([ATP] 4.000E-06 M); 0.6172 and 0.5832 and 0.5545 in test [2] ([ATP] 8.000E-07 M); 0.9825 and 0.9019 and 0.8989 in test [3] ([ATP] 1.000E-04 M); 0.8446 and 0.8328 and 0.7216 in test [3] ([ATP] 2.000E-05 M); 0.7216 and 0.6921 and 0.6232 in test [3] ([ATP] 4.000E-06 M). The “Normalized Current” value in test [3] ([ATP] 5.000E-04 M) was 1.035 and 0.9912 and 0.9735; in test [3] ([ATP] 8.000E-07 M), 0.3703 and 0.2936 and 0.2241; in test [4] ([ATP] 1.000E-04 M), 0.9915 and 0.8795 and 0.8416; in test [4] ([ATP] 2.000E-05 M), 0.8809 and 0.7486 and 0.74; in test [4] ([ATP] 3.200E-08 M), 0.000000; in test [4] ([ATP] 4.000E-06 M), 0.723 and 0.5398 and 0.4488. Besides, in test [4] ([ATP] 5.000E-04 M), the “Normalized Current” value is 1.029 and 1.009 and 0.9611. Besides, the “apparent affinity (EC50) of ATP, effect of mutation” value in test [2] (hP2X1 K249A vs wild-type, TEVC) is reported as “do not appear to significantly change; also recorded: no major effect; also recorded: moderately increases”; in test [4] (hP2X1 D170A vs wild-type, TEVC), “do not appear to significantly change; also recorded: no major effect; also recorded: does not significantly impact”.
